Literature values in paper PMC3689924 (Pharmacology, 2012).

Conditions: cited from earlier work

Row | SMILES | increase in AUC with increasing dose
1 | O[C@@H](COc1cccc2ncccc12)CN1CCN([C@@H]2c3ccccc3[C@@H]3[C@H](c4ccccc42)C3(F)F)CC1 [zosuquidar] | greater than proportional increases in AUC
2 | COC(=O)c1cnc2n1CCc1ccccc1C2=C1CCN(CCc2ccc(OCc3ccc4ccccc4n3)cc2)CC1 [laniquidar] | greater than proportional increases in AUC
